# Data as given in article PMC8016166, “Identification of a Potent and Selective 5-HT1A Receptor Agonist with In Vitro and In Vivo Antinociceptive Activity” (ACS Chemical Neuroscience, 2020).
# Tests used:
# 5-HT1AR [1] = molecular target: T1, 5-HT1AR (Rattus norvegicus, UniProt P19327); assay: [35S]GTPγS functional 5-HT1A assay in rat hippocampal membranes; assay type: biochemical; conditions: for eudismic ratio (EC50S/R): S vs R optical isomer; for agonist classification by Emax vs serotonin: [35S]GTPγS binding, partial = half (or lower) as efficacious as serotonin; for Emax: basal 5-HT1AR activation set to 100%, read-out: 5-HT1A Emax (%) ± SEM
# T1 construct: from tissue; hippocampus per the main-text methods
# T1 sequence (P19327 1-422): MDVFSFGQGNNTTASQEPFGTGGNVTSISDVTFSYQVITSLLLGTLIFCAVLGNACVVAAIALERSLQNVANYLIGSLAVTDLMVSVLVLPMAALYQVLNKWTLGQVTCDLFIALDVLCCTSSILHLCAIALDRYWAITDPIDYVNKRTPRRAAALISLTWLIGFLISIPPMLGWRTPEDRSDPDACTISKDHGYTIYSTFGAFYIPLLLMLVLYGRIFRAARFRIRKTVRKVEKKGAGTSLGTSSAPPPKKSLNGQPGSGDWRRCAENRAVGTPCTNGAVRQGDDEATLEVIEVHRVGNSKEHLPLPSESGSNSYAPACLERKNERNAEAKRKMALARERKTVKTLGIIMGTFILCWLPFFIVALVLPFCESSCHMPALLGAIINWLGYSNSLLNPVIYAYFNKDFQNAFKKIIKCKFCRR
# Description: Male Sprague–Dawley rats were decapitated and their brains removed and placed on ice. The hippocampi (for the functional 5-HT1A receptor assay) or frontal cortexes (for the competitive 5-HT2A and 5-HT2C receptor assays) were dissected and homogenized with a glass homogenizer in 30 vol. ice-cold TED buffer (50 mMTris-HCl, 1 mM EDTA, 1 mM dithiotheritol, pH 7.4). Next, the homogenate was centrifuged at 21 000g for 30 min at 4 °C. The pellet was suspended in 30 vol TED buffer (pH 7.4) and incubated in a water bath for 10 min at 37 °C to remove endogenous ligands. The suspension was centrifuged again at 21 000g for 30 min at 4 °C. The pellet was resuspended in 30 vol TED buffer (pH 7.4) and the centrifugation step was repeated. The final pellet was suspended in 10 vol 50 mM Tris-HCl (pH 7.4) and stored at −80 °C until use.[47]
# (§1) The [^35S]GTPγS assay was performed according to the method described previously.[49] […] Nonspecific binding was determined with 100 μM of unlabeled GTPγS. The reaction mixture was incubated for 90 min at 36 °C in a volume of 250 μL. […] Next, 96-well Unifilter Plates (PerkinElmer, USA) were presoaked for 1 h with 50 mM Tris-HCl (pH = 7.4) before harvesting. The reaction was terminated by vacuum filtration onto filter plates with the Filter Mate Harvester (PerkinElmer, USA). The samples were then rapidly washed with 2 mL of 50 mM Tris-HCl (pH = 7.4) buffer. The filter plates were dried for 2 h at 50 °C. After drying, 45 μL of EcoScint-20 scintillant (PerkinElmer, USA) was added to every well. The radioactivity was counted in a Trilux MicroBeta^2 counter (PerkinElmer, USA). The data were analyzed with GraphPad Prism 5.0 software (GraphPad Software, San Diego California USA, www.graphpad.com). To determine whether compound-stimulated [^35S]GTPγS binding involved 5-HT1A receptors, two protocols were used.
# The curves were fitted with a one-site nonlinear regression model. Efficacy (Emax) and potency (pEC50) were calculated from […] from three separate experiments and expressed as the means ± SEM. […] The differences in compound potency and efficacy were evaluated with one-way ANOVA followed by the Bonferroni’s post-hoc test. The baseline G-protein stimulation was set at 100%. One, two, or three symbols represent statistical significance of 0.05, 0.01, and 0.001, respectively.
# 5-HT1AR [2] = molecular target: T1, 5-HT1AR; assay: Effect of WAY100635 on compound-stimulated [35S]GTPγS binding (Tables SI-1, SI-2); assay type: biochemical; conditions: for Emax: basal set to 100%; for EC50: rat frontal cortex homogenates, read-out: pEC50 ± SEM, compound alone (converted); for shift ratio: with WAY100635 10^-7 M vs agonist alone
# Description: as §1, with “used. […]” for “used.”
# WAY).) Results were expressed as means ± SEM. Curves were fitted with a one-site sigmoidal dose-response equation […]
# calculated as the ratio of pEC50 in the presence of WAY100635 divided by the pEC50 of agonist alone. Basal 5-HT1AR activation was set to 100%. Results were analyzed with one-way ANOVA followed by the Bonferroni’s post-hoc test. […]
# WAY100635 (10^-10 M - 10^-5 M, WAY). Results were expressed as means ± SEM. Curves were fitted with a one-site sigmoidal dose-response equation and Emax (%) of the EC80 agonist concentration alone and in the presence of WAY100635 were determined from 2 independent experiments. Basal (no ligand added) [35S]GTPγS binding was set to 100%. Results were analyzed with one-way ANOVA followed by the Bonferroni’s post-hoc test.
# human 5-HT7b = molecular target: T2, human 5-HT7b (Homo sapiens, UniProt P34969); assay: Radioligand binding at 5-HT7 in transfected HEK293 cells; conditions: for selectivity 5-HT7/5-HT1A: Antilog [pKi (5-HT1AR) – pKi (5-HT7R)]; for Ki: transfected HEK293 cells, [3H]-5-CT, read-out: 5-HT7 pKi ± SEM (converted)
# T2 construct: expressed in transfected cells
# human 5-HT6 = molecular target: T3, human 5-HT6 (Homo sapiens, UniProt P50406); assay: Radioligand binding at 5-HT6 in transfected HEK293 cells; conditions: for selectivity 5-HT6/5-HT1A: Antilog [pKi (5-HT1AR) – pKi (5-HT6R)]; for Ki: transfected HEK293 cells, [3H]-LSD, read-out: 5-HT6 pKi ± SEM (converted)
# T3 construct: expressed in transfected cells
# [3] = Table SI-1, read-out: Emax (%) ± SEM, compound alone
# [4] = Table SI-2, read-out: Emax (%) ± SEM of EC80 agonist concentration alone
# [5] = rat hippocampal membranes, [35S]GTPγS, three independent experiments, read-out: 5-HT1A pEC50 ± SEM (converted)
# T2 sequence (P34969 1-432): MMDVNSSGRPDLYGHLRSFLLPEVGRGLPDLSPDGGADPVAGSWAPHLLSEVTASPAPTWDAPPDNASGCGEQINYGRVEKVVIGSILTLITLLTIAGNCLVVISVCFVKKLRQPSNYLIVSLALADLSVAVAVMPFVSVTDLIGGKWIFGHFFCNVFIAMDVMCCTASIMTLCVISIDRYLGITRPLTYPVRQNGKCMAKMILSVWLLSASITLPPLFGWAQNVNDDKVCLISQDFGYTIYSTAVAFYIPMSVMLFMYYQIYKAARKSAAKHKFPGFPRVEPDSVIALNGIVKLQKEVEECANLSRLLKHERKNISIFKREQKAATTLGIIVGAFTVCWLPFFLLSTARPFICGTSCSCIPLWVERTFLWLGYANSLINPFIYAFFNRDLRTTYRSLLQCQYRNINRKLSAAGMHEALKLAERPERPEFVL
# T3 sequence (P50406 whole entry): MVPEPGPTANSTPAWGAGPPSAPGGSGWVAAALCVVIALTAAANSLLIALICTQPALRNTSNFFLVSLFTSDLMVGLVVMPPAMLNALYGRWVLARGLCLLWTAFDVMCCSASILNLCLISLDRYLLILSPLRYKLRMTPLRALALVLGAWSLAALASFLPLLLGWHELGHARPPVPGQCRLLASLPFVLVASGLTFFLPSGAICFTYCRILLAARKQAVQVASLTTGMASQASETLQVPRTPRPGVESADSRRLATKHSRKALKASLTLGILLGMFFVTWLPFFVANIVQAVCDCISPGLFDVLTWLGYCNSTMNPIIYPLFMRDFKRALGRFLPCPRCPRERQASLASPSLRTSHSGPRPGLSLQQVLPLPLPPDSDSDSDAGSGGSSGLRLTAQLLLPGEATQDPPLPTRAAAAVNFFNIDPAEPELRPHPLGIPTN
structure (smiles),measurement,setting,value
"c1ccc(C2(c3ccccc3)OCC(CNCCOc3ccccc3-c3ccncc3)O2)cc1 (racemic) [rac-1, N-[(2,2-diphenyl-1,3-dioxolan-4-yl)methyl]-2-[2-(pyridin-4-yl)phenoxy]ethan-1-ammonium hydrogenoxalate]",eudismic ratio (EC50S/R),5-HT1AR [1]; [35S]GTPγS,4.0
same,agonist classification by Emax vs serotonin,5-HT1AR [1],partial agonists
same,EC50,"5-HT1AR [1]; [35S]GTPγS functional assay, read-out: EC50",92.1 nM
same,Emax,5-HT1AR [1]; rat hippocampal membranes,151 ± 4.2%
same,Emax,5-HT1AR [2]; [3],151 ± 4.2%
same,EC50,5-HT1AR [2]; Table SI-1,100 nM
same,shift ratio,5-HT1AR [2]; Table SI-1,6.3
same,Emax,5-HT1AR [2]; [4],138 ± 28.4%
same,selectivity 5-HT7/5-HT1A,human 5-HT7b,56
same,Ki,human 5-HT7b,513 nM
same,selectivity 5-HT6/5-HT1A,human 5-HT6,832
same,Ki,human 5-HT6,7590 nM
"Cn1cncc1-c1ccccc1OCCNCC1COC(c2ccccc2)(c2ccccc2)O1 (racemic) [rac-2, N-((2,2-diphenyl-1,3-dioxolan-4-yl)methyl)-2-(2-(1-methyl-1H-imidazol-5-yl)phenoxy)ethan-1-ammonium hydrogenoxalate]",eudismic ratio (EC50S/R),5-HT1AR [1]; [35S]GTPγS,2.6
same,agonist classification by Emax vs serotonin,5-HT1AR [1],full agonists
same,EC50,5-HT1AR [1]; [5],39.8 nM
same,Emax,5-HT1AR [1]; rat hippocampal membranes,184 ± 2.7%
same,Emax,5-HT1AR [2]; [3],184 ± 2.7%
same,EC50,5-HT1AR [2]; Table SI-1,39.8 nM
same,shift ratio,5-HT1AR [2]; Table SI-1,31.6
same,Emax,5-HT1AR [2]; [4],158 ± 24.6%
same,selectivity 5-HT7/5-HT1A,human 5-HT7b,89
same,Ki,human 5-HT7b,661 nM
same,selectivity 5-HT6/5-HT1A,human 5-HT6,676
same,Ki,human 5-HT6,5010 nM
"c1ccc(C2(c3ccccc3)OC[C@@H](CNCCOc3ccccc3-c3ccncc3)O2)cc1 [(R)-1, N-[(2,2-Diphenyl-1,3-dioxolan-4-yl)methyl]-2-[2-(pyridin-4-yl)phenoxy]ethan-1-ammonium hydrogenoxalate]",agonist classification by Emax vs serotonin,5-HT1AR [1],partial agonists
same,EC50,5-HT1AR [1]; [5],63.1 nM
same,Emax,5-HT1AR [1]; rat hippocampal membranes,158 ± 5.9%
same,Emax,5-HT1AR [2]; [3],158 ± 5.9%
same,EC50,5-HT1AR [2]; Table SI-1,63.1 nM
same,shift ratio,5-HT1AR [2]; Table SI-1,10.0
same,Emax,5-HT1AR [2]; [4],149 ± 35.1%
same,selectivity 5-HT7/5-HT1A,human 5-HT7b,112
same,Ki,human 5-HT7b,501 nM
same,selectivity 5-HT6/5-HT1A,human 5-HT6,955
same,Ki,human 5-HT6,4270 nM
"Cn1cncc1-c1ccccc1OCCNC[C@@H]1COC(c2ccccc2)(c2ccccc2)O1 [(R)-2, N-((2,2-Diphenyl-1,3-dioxolan-4-yl)methyl)-2-(2-(1-methyl-1H-imidazol-5-yl)phenoxy)ethan-1-ammonium hydrogenoxalate]",agonist classification by Emax vs serotonin,5-HT1AR [1],partial agonists
same,EC50,5-HT1AR [1]; [5],63.1 nM
same,Emax,5-HT1AR [1]; rat hippocampal membranes,143 ± 3.6%
same,Emax,5-HT1AR [2]; [3],143 ± 3.6%
same,EC50,5-HT1AR [2]; Table SI-1,63.1 nM
same,shift ratio,5-HT1AR [2]; Table SI-1,19.9
same,Emax,5-HT1AR [2]; [4],140 ± 18.8%
same,selectivity 5-HT7/5-HT1A,human 5-HT7b,66
same,Ki,human 5-HT7b,794 nM
same,selectivity 5-HT6/5-HT1A,human 5-HT6,417
same,Ki,human 5-HT6,5010 nM
"c1ccc(C2(c3ccccc3)OC[C@H](CNCCOc3ccccc3-c3ccncc3)O2)cc1 [(S)-1, N-[(2,2-Diphenyl-1,3-dioxolan-4-yl)methyl]-2-[2-(pyridin-4-yl)phenoxy]ethan-1-ammonium hydrogenoxalate]",functional activity of (S)-1 compared with racemate 1,5-HT1AR [1],6 fold
same,agonist classification by Emax vs serotonin,5-HT1AR [1],partial agonists
same,EC50,5-HT1AR [1]; [5],15.8 nM
same,Emax,5-HT1AR [1]; rat hippocampal membranes,138 ± 2.9%
same,Emax,5-HT1AR [2]; [3],138 ± 2.9%
same,EC50,5-HT1AR [2]; Table SI-1,15.8 nM
same,shift ratio,5-HT1AR [2]; Table SI-1,39.8
same,Emax,5-HT1AR [2]; [4],134 ± 24.5%
same,selectivity 5-HT7/5-HT1A,human 5-HT7b,43
same,Ki,human 5-HT7b,398 nM
same,selectivity 5-HT6/5-HT1A,human 5-HT6,347
same,Ki,human 5-HT6,3240 nM
"Cn1cncc1-c1ccccc1OCCNC[C@H]1COC(c2ccccc2)(c2ccccc2)O1 [(S)-2, N-((2,2-Diphenyl-1,3-dioxolan-4-yl)methyl)-2-(2-(1-methyl-1H-imidazol-5-yl)phenoxy)ethan-1-ammonium hydrogenoxalate]",agonist classification by Emax vs serotonin,5-HT1AR [1],full agonists
same,EC50,5-HT1AR [1]; [5],25.1 nM
same,Emax,5-HT1AR [1]; rat hippocampal membranes,175 ± 2.7%
same,Emax,5-HT1AR [2]; [3],175 ± 2.7%
same,EC50,5-HT1AR [2]; Table SI-1,25.1 nM
same,shift ratio,5-HT1AR [2]; Table SI-1,25.1
same,Emax,5-HT1AR [2]; [4],156 ± 21.7%
same,selectivity 5-HT7/5-HT1A,human 5-HT7b,148
same,Ki,human 5-HT7b,603 nM
same,selectivity 5-HT6/5-HT1A,human 5-HT6,1349
same,Ki,human 5-HT6,5500 nM
